≈ marks a conversion by molar mass, not a printed value.
Key:
Assay type in all cases: in vivo
[1] = tested on: 3rd-instar larvae of Agrotis ipsilon (Rottemberg); assay: Joint toxicity of I-72 + SYP-1620, fludioxonil, insect-dipping, Example 80, Table 80
Description: (§1) Preparation of the pesticide solution: according to different test requirements, the test samples were accurately weighed respectively with an electronic analytical balance. The technical pesticides were dissolved in acetone, and then diluted with 0.1% Tween 80 water into a series of pesticide solutions with a certain concentration gradient according to the experimental design dosage.
(§2) The target insects were dipped into the pesticide solution for 10 s and then taken out. Excess pesticide solution was absorbed with filter paper. […] A treatment without the pesticide was set as the blank control.
(§3) The number of dead and live insects was investigated 72 hours later. The corrected mortality rate was calculated using the Abbott's formula, and statistical analysis was performed with the DPS data processing software to obtain the toxicity regression equation and LC50 value of each single test pesticide and each mixture of different ratios.

[2] = tested on: Unaspis yanonensis Kuwana nymphs; assay: Joint toxicity of I-72 + afidopyropen, Example 76, Table 76; details: A = compound I-72, B = afidopyropen; citrus leaf dipping; 120 hours
Description: Test target: Unaspis yanonensis Kuwana nymphs.
as §1
Experimental method: the activity of the mixture against Unaspis yanonensis Kuwana nymphs on citrus was determined by adopting the dipping method. First, the collected citrus leaves with Unaspis yanonensis Kuwana nymphs were treated with the pesticide solution in the order from low dosage to high dosage according to the experimental design. After air-drying, the petioles were kept moist with degreased cotton, and then the leaves were placed in a Petri dish, with 3 replicates for each treatment. In addition, a blank control was set up.
(§4) The treated test materials were placed in an observation room, and the temperature, humidity and illumination of the observation room could be adjusted as needed. The number of dead and live insects was investigated 120 hours later. […] Then, the co-toxicity coefficient of each ratio was calculated using the Sun Y-P method to evaluate the mixing effect (the same as in Example 1).

[3] = tested on: adult Tetranychus urticae Koch; assay: Joint toxicity of I-72 + cyetpyrafen, Example 85, Table 85; details: A = compound I72, B = cyetpyrafen; potted-seedling spraying; 72 hours
Description: Test target: adult Tetranychus urticae Koch, a sensitive strain reared indoors.
as §1
(§5) Experimental method: the activity of the mixture against the adult Tetranychus urticae Koch was determined by adopting the potted-seedling spraying method. First, the adult Tetranychus urticae Koch of uniform size were transferred onto the leaves of kidney bean seedlings at the stage when the first pair of true leaves was fully expanded. After the adult mites had stabilized, the base number was counted. Then, the uniform spraying was performed with the pesticide solution in the order from low to high dose according to the experimental design, with 1.5 mL for each seedling and 3 replicates for each treatment. […]
as §4, with “needed.” for “needed. The number of dead and live insects was investigated 120 hours later.”

[4] = tested on: Thrips flavus Schrank nymphs; assay: Joint toxicity of I-72 + flonicamid, Example 78, Table 78; details: A = compound I-72, B = flonicamid; eggplant seedling spraying; 48 hours
Description: Test target: Thrips flavus Schrank nymphs.
as §1
Experimental method: first, eggplant seedlings with Thrips flavus Schrank were selected, and the base number was counted. Then, uniform spraying was performed with the pesticide solution in the order from low to high doses according to the experimental design, with 2 mL for each seedling and 3 replicates for each treatment. In addition, a blank control was set up.
as §4, with “48” for “120”

[5] = tested on: Aphis gossypii Glover nymphs; assay: Joint toxicity of I-72 + flonicamid, Example 74, Table 74; details: A = compound I-72, B = flonicamid; cotton leaf spraying; 48 hours
Description: Test target: Aphis gossypii Glover nymphs, a sensitive strain reared indoors.
as §1
(§6) Experimental method: first, cotton leaves with uniform and consistent Aphis gossypii were selected, with about 30-40 insects on each leaf. Then, they were evenly sprayed with the pesticide solution in the order from low dosage to high dosage according to the experimental design, with 1.5 mL for each leaf and 3 replicates for each treatment. In addition, a blank control was set up.
as §4, with “48” for “120”

[6] = tested on: 3rd-instar larvae of Agrotis ipsilon (Rottemberg); assay: whole plant or invertebrate; details: A = compound I-72, B = metalaxyl-M; insect-dipping; 72 hours
Description: Test conditions: temperature: 24-26° C., humidity: RH 60%, and illumination: L:D=14:10
as §1, §2, §3

[7] = tested on: Aphis citricola van der Goot nymphs; assay: Joint toxicity of I-72 + nicotine, Example 72, Table 72; details: A = compound I-72, B = nicotine, apple leaf spraying, 48 hours
Description: Test target: Aphis citricola van der Goot nymphs.
as §1
as §6, with “apple” for “cotton”, “citricola van der Goot” for “gossypii”
as §4, with “48” for “120”

[8] = tested on: Myzus persicae (Sulzer) nymphs; assay: Joint toxicity of I-72 + pymetrozine, Example 73, Table 73; details: in Brassica oleracea, 48 h
Description: Test target: Myzus persicae (Sulzer) nymphs, a sensitive strain reared indoors.
as §1
as §6, with “cabbage” for “cotton”, “Myzus persicae (Sulzer)” for “Aphis gossypii”, “mL of the solution” for “mL”
as §4, with “48” for “120”, “effect,” for “effect (the same”, “1.” for “1).”

[9] = tested on: 3rd-instar larvae of Ostrinia furnacalis Guenee; assay: Joint toxicity of I-72 + pymetrozine, Example 79, Table 79; details: in Zea mays, 72 h
Description: Test target: 3rd-instar larvae of Ostrinia furnacalis Guenee.
as §1
Experimental method: first, tender corn stems were selected and dipped in the prepared pesticide solution for 10 s in the order from low dosage to high dosage according to the experimental design. After natural air-drying in the shade, they were placed in a 9-cm-diameter Petri dish with filter paper, and uniform and healthy test insects were introduced, with 10 insects for each treatment and 3 replicates for each treatment. In addition, a blank control was set up.
as §4, with “72” for “120”

[10] = tested on: adult Bemisia tabaci (Gennadius); assay: Joint toxicity of I-72 + pyraclostrobin, cotton seedling spraying, Example 83, Table 83; details: 72 h
Description: as §1
The corrected mortality rate was calculated using the Abbott's formula, and statistical analysis was performed with the DPS data processing software to obtain the toxicity regression equation and LC50 value of each single test pesticide and each mixture of different ratios.

[11] = tested on: adult Tetranychus cinnabarinus (Boisduval); assay: Joint toxicity of I-72 + pyridaben, Example 84, Table 84; details: 72 h
Description: Test target: adult Tetranychus cinnabarinus (Boisduval), a sensitive strain reared indoors.
as §1
as §5, with “adult Tetranychus cinnabarinus (Boisduval) was determined” for “adult Tetranychus urticae Koch was determined”, “adult Tetranychus cinnabarinus of uniform” for “adult Tetranychus urticae Koch of uniform”
as §4, with “needed.” for “needed. The number of dead and live insects was investigated 120 hours later.”, “effect,” for “effect (the same”, “1.” for “1).”

[12] = tested on: Bemisia tabaci (Gennadius) nymphs; assay: Joint toxicity of I-72 + pyrifluquinazon, Example 77, Table 77; details: A = compound I-72, B = pyrifluquinazon; cotton leaf-disk spraying; 96 hours
Description: (§7) Test target: Bemisia tabaci (Gennadius) nymphs, a sensitive strain reared indoors.
as §1
as §6, with “neat” for “uniform”, “Bemisia tabaci (Gennadius) nymphs” for “Aphis gossypii”, “selected and made into leaf disks,” for “selected,”, “20” for “30-40”, “leaf disk.” for “leaf.”
as §4, with “96” for “120”

[13] = tested on: Bemisia tabaci (Gennadius) nymphs; assay: Joint toxicity of I-72 + thiacloprid, Example 71, Table 71; details: in Gossypium hirsutum, 96 h
Description: as §7, §1
as §6, with “neat” for “uniform”, “Bemisia tabaci (Gennadius) nymphs” for “Aphis gossypii”, “selected and made into leaf disks,” for “selected,”, “20” for “30-40”, “leaf disk.” for “leaf.”
as §4, with “96” for “120”

[14] = tested on: Nilaparvata lugens (Stal) nymphs; assay: Joint toxicity of I-72 + triflumezopyrim, Example 75, Table 75; details: A = compound I-72, B = triflumezopyrim; potted-seedling spraying; 72 hours
Description: Test target: Nilaparvata lugens (Stal) nymphs, a sensitive strain reared indoors.
as §1
Experimental method: the activity of the mixture against the Nilaparvata lugens (Stal) nymphs was determined by adopting the potted-seedling spraying method. First, rice seedlings were planted in culture pots. Uniform spraying was performed with the pesticide solution in the order from low dosage to high dosage according to the experimental design, with 2 mL for each seedling. Then, Nilaparvata lugens nymphs of uniform size were transferred onto the rice seedlings, with 3 replicates for each treatment. In addition, a blank control was set up.
as §4, with “72” for “120”

CNC(=O)/C(=N/OC)c1ccccc1CO/N=C(C)/C=C/c1c(Cl)cccc1Cl [SYP-1620]
LC50 ([1]; A = compound I-72, B = SYP-1620, 72 hours): 361.2037 µg/mL

C[C@]1(COC(=O)C2CC2)[C@@H]2C[C@H](O)[C@@]3(C)Oc4cc(-c5cccnc5)oc(=O)c4[C@H](O)[C@@H]3[C@@]2(C)CC[C@@H]1OC(=O)C1CC1 [afidopyropen]
LC50 [2]: 2.8361 µg/mL

CCn1nc(C)cc1/C(OC(=O)C(C)(C)C)=C(/C#N)c1ccc(C(C)(C)C)cc1 [cyetpyrafen]
LC50 [3]: 0.6118 µg/mL

N#CCNC(=O)c1cnccc1C(F)(F)F [flonicamid]
LC50 [4]: 50.8013 µg/mL | LC50 [5]: 2.3954 µg/mL

N#Cc1c[nH]cc1-c1cccc2c1OC(F)(F)O2 [fludioxonil]
LC50 ([1]; Agrotis ipsilon, A = compound I-72, B = fludioxonil, 72 hours, read-out: LC50): 391 µg/mL

COCC(=O)N(c1c(C)cccc1C)[C@H](C)C(=O)OC [metalaxyl-M]
LC50 [6]: 401.2975 µg/mL (≈ 1440 µM)

CN1CCC[C@H]1c1cccnc1 [nicotine]
LC50 [7]: 8.19 µg/mL

CC1=NNC(=O)N(/N=C/c2cccnc2)C1 [pymetrozine]
LC50 [8]: 5.51 µg/mL | LC50 [9]: 300 µg/mL

COC(=O)N(OC)c1ccccc1COc1ccn(-c2ccc(Cl)cc2)n1 [pyraclostrobin]
LC50 [10]: 424 µg/mL

CC(C)(C)c1ccc(CSc2cnn(C(C)(C)C)c(=O)c2Cl)cc1 [pyridaben]
LC50 [11]: 10.8 µg/mL

CC(=O)N1C(=O)N(NCc2cccnc2)Cc2cc(C(F)(C(F)(F)F)C(F)(F)F)ccc21 [pyrifluquinazon]
LC50 [12]: 10.6205 µg/mL

N#C/N=C1\SCCN1Cc1ccc(Cl)nc1 [thiacloprid]
LC50 [13]: 6.26 µg/mL

O=c1c(-c2cccc(C(F)(F)F)c2)c([O-])[n+](Cc2cncnc2)c2ccccn12 [triflumezopyrim]
LC50 [14]: 0.8838 µg/mL
